Values of other authors as cited in US9040021B2, “Heterocyclic compounds as imaging probes of tau pathology” (GE Healthcare Limited, priority 2010, dated 2015).

Molecular target: tau aggregates (Homo sapiens, UniProt P10636)
Details: in vitro; tau aggregates vs Aβ1-42 amyloid; fold selectivity

Chain of tau aggregates (P10636 whole entry): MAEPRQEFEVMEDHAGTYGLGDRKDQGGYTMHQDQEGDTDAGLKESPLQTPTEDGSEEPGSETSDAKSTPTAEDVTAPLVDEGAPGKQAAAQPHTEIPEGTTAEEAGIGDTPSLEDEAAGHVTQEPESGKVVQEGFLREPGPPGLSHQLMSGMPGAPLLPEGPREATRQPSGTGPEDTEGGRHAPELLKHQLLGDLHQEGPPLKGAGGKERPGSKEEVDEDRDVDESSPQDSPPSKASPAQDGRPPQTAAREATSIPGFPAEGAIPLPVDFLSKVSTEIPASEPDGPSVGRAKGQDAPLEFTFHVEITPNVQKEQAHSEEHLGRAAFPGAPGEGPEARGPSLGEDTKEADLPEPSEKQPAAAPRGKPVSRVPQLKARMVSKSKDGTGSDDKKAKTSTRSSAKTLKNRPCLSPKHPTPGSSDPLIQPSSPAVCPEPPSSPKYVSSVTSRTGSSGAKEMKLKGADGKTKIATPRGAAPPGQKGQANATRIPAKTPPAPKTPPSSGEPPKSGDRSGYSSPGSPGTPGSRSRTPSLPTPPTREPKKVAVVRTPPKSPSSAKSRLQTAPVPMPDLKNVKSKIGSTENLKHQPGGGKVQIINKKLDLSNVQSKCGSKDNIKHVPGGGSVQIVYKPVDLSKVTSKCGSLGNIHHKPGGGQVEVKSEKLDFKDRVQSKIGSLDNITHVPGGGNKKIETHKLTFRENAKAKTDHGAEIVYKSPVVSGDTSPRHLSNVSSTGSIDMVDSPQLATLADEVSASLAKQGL

selectivity for tau aggregates over Aβ1-42 amyloid | SMILES
threefold | CNc1ccc(-c2ccc3ccccc3n2)cc1 [BF-158, 2-(4-(methylamino)phenyl)quinoline]
threefold | Nc1ccc(-c2ccc3ccccc3n2)cc1 [BF-170, 2-(4-(amino)phenyl)quinoline]
